Values joined by “and” are separate entries in the source; they are usually repeats but may differ in a detail not shown here. Identical values can stand only once.
Legend:
[1] = tested on: human coronary artery smooth muscle cells (HCASMC); experiment: CellTiter 96 One solution (MTS) cell proliferation assay, HCASMC; assay type: cell-based
Procedure: (§1) Human coronary artery endothelial cells (HCAEC) were purchased from Cambrex and human coronary artery smooth muscle cells (HCASMC) were purchased from Promocell. Cells were used for experiments between passage 4 and passage 12. Both cell types were cultured in their respective complete culture medium with the following composition: • HCASMC: Smooth Muscle Cell Growth Medium 2: Epidermal Growth Factor (EGF), basic Fibroblast Factor (FGF), Insulin, Fetal Calf Serum (FCS) 5%, Amphotericin B, Gentamicin. • HCAEC: Endothelial Growth Media-2 MV: hEGF, Hydrocortisone, GA-1000, FBS 5%, VEGF, hFGF-B, R3-IGF-1, Ascorbic Acid Medium was changed every other day. 24 hours prior to growth factor stimulation, the medium was replaced by fresh culture medium, however, without growth factors to increase the cellular sensitivity to the subsequent growth factor stimulation. Subconfluent HCAEC were stimulated with 10 ng/ml of VEGF-A, whereas subconfluent HCASMC were stimulated with 10 ng/ml of PDGF-BB. Likewise, both cell types were stimulated with 25% of human serum (final concentration). Melatonin (Acros organics) was kindly provided by BlueMedical Devices BV. A stock solution was prepared in DMSO, aliquoted and stored at −20° C. For each experiment a fresh aliquot was opened and diluted to the desired final concentration in cell culture medium. All proliferation and cytotoxicity experiments were performed on cells cultured on 96 well plates (Costar). The CellTiter 96 One solution cell proliferation assay from Promega was used to assess cell proliferation in a 96-well plate. This assay makes use of the MTS tetrazolium compound as a cellular substrate. MTS is bioreduced by living cells into a coloured formazan product that is soluble in tissue culture medium and absorbs light at 490 nm. The quantity of formazan produced is directly proportional to the number of living cells in culture. After 24 h stimulation, 20 μl of MTS reagent was added to the cells cultured in 100 ul of medium per well. After 2 to 4 hours of incubation at 37° C., 5% CO2, the absorbance at 490 nm was recorded using a 96-well plate reader (Tecan).

[2] = tested on: human coronary artery endothelial cells (HCAEC); experiment: CellTiter 96 One solution (MTS) cell proliferation assay, HCAEC; assay type: cell-based
Procedure: as §1

HCAEC [3] = experiment: CytoTox-ONE LDH release cytotoxicity assay, HCAEC; assay type: cell-based, human; settings: 48 hours, 0.2 to 6 mM Melatonin
Procedure: (§2) Cytotoxicity experiments were performed with cells cultured on 96-well plates. The CytoTox-ONE™ Assay from Promega was used to assess the membrane integrity of cells. This test is based on a fluorometric method to estimate the number of non viable cells present in multiwell plates by measuring the release of lactate dehydrogenase (LDH) from cells with damaged membranes. Subconfluent cells were incubated for 48 hours with Melatonin at concentrations between 0.2 and 6 mM. During the 48 h Melatonin incubation, the medium was not changed to avoid removal of any detached cells. As a positive control three wells of untreated cells were incubated with lysis buffer (delivered with the assay) before measurement. At the end of the Melatonin incubation period, a volume of CytoTox-ONE reagent equal to the volume of cell culture medium present in each well was added. After 10 min incubation at 22° C. (room temperature), 50 μl of stop solution was added per 100 μl of CytoTox-ONE reagent added. The plate was shaked for 10 seconds and fluorescence was recorded with an excitation wavelength of 560 nm and an emission wavelength of 590 nm (Spectramax M2 fluorescence plate reader, Molecular devices).

HCASMC = experiment: CytoTox-ONE LDH release cytotoxicity assay, HCASMC; assay type: cell-based, human; settings: 48 hours, 0.2 to 6 mM Melatonin
Procedure: as §2

[4] = tested on: HUVEC (Human Umbilical Vein Endothelial Cells); experiment: [3H]-thymidine incorporation, HUVEC stimulated with VEGF-A; assay type: cell-based; settings: VEGF A 10 ng/ml 24 hours
Procedure: To investigate, whether melatonin has similar effects on other cell types, HUVEC (Human Umbilical Vein Endothelial Cells, Promocell) were tested. HUVEC were cultured in the corresponding complete medium (Endothelial Cell Growth Medium: ECGS/H 0.4%, Fetal Calf Serum 2%, Epidermal Growth Factor 0.1 ng/ml, Hydrocortison 1 μg/ml, basic Fibroblast Factor 1 ng/ml, Amphotericin B 50 ng/ml, Gentamicin 50 μg/ml). 24 hours prior to stimulation, the medium was replaced by a medium containing 2% serum and antibiotics, but devoid of the other complements. Then, HUVEC were stimulated with 10 ng/ml of VEGF-A for 24 hours. HUVEC were incubated for 48 hours with Melatonin and stimulated for 24 hours with VEGF-A at 10 ng/ml. After 24 hours of stimulation, the cells were incubated with radioactive [^3H]-thymidine. Two hour later, the medium was removed and cell-bound DNA was precipitated using 5% TCA (Trichloroacetic acid). Then, [^3H]-thymidine incorporation was measured using a beta-counter.

HCAEC [5] = experiment: Chemotaxis towards VEGF-A, modified Boyden chamber, HCAEC; assay type: cell-based, human; settings: 2 mM Melatonin; VEGF-A 10 ng/ml; migration 4 hours; performed only once
Procedure: Chemotaxis experiments were performed using a modified Boyden chamber. The apparatus consists of two multi-well chambers separated by a filter containing pores of uniform size. A solution containing a chemokine or chemotactic factor is placed in the lower/bottom chamber and a cell suspension is placed in the upper chamber. Cells can migrate through the pores across the filter and towards the chemoattractant in the lower chamber. Cells that migrated across the filter and remain attached to the lower side of the membrane are counted. Data are expressed in terms of migration index: the number of cells that migrated in response to agonist stimulation compared to the number of cells that migrated randomly, i.e. to medium only. Chemotaxis experiments so far were only performed with HCAEC. For these cells a 25×80 mm polycarbonate filter, […] (PVP) free was used (Whatman) with a pore size of […]. Before migration the filter was coated with collagen. Endothelial cells were incubated with Melatonin at 2 mM prior to and during migration. After 24 hours pre-incubation with Melatonin, untreated and Melatonin-treated cells were detached with trypsin and a cell suspension (0.5 million cells/ml) was loaded in the upper part of the chamber. […] At the end of migration, cells were fixed on the filter, stained with Giemsa and counted using a regular optic microscope.

COc1ccc2[nH]cc(CCNC(C)=O)c2c1 [Melatonin, N-acetyl-5-methoxytryptamine]
concentrations at which proliferation of HCASMC is strongly inhibited [1]: higher than 0.2 mM
effect on number of smooth muscle cells ([1]; 1 mM Melatonin, 24 hours pre-treatment, PDGF BB 10 ng/ml 24 h): significant decrease in the number of smooth muscle cells
effect on the proliferation of HCASMC ([1]; Melatonin up to 0.1 mM, PDGF BB 10 ng/ml 24 h): no significant effect
concentration of maximal inhibitory effect on HCASMC ([1]; PDGF-BB stimulated): 5 mM
inhibitory effect on HCASMC at higher concentrations ([1]; above 5 mM, up to 10 mM): no significant further increase in the inhibitory effect
concentrations at which proliferation of HCAEC is strongly inhibited [2]: higher than 0.2 mM
effect on HCAEC cell number ([2]; Melatonin between 1 mM and 6 mM): dramatic decrease in cell number
sensitivity of HCAEC proliferation ([2]; Melatonin up to 0.1 mM): not sensitive
concentration of maximal effect on HCAEC cell number ([2]; subconfluent cells): 3 mM and 6 mM
cytotoxic effect (LDH release) on HCAEC (HCAEC [3]): does not induce any detectable cytotoxic effect
cytotoxic effect (LDH release) on HCASMC (HCASMC): does not induce any detectable cytotoxic effect
effect on HUVEC ([4]; 0.2 mM Melatonin, 48 hours): inhibitory effect
VEGF-A induced [3H]-thymidine incorporation ([4]; Melatonin 48 hours): completely inhibited
effect on chemotactic response of HCAEC towards VEGF-A (HCAEC [5]): did not have any significant effect

From patent US20090258053A1, “MEDICAL STENT PROVIDED WITH A COMBINATION OF MELATONIN AND PACLITAXEL” (Blue Medical Deevices BV, priority 2006, published 2009)
